Laboratory results published in patent US20250160718A1, “SYSTEMS AND METHODS FOR HIGH-DENSITY LONG-TERM INTRACELLULAR ELECTROPHYSIOLOGY” (President and Fellows of Harvard College, priority 2022, published 2025).

How the values were obtained:
MDCK cells [1] = tested on: MDCK cells
Description: This example describes a technique that uses cross-electrode impedance mapping to quantify adhesion or adherence of cells in a cell culture. The terms “adhesion” and “adherence” may be used interchangeably herein.
In this example, ethylenediaminetetraacetic acid (EDTA) was applied to the cells. EDTA is a calcium chelator that removes Ca^2+ needed for integrin proteins to maintain cell adhesion. With EDTA applied, the cells quickly detached over a duration of time of about 50 min. The EDTA was then washed out by adding normal culture media, where the cells re-attached over a duration of time of about 200 min.
FIG. 6b is a data plot showing mean normalized impedance values over time for different regions of a map 601 of an electrode array in the cell culture. FIG. 6c show histograms of the normalized impedance values before, during, and after a washout of EDTA across the electrode array.

MDCK cells [2] = test: Wound healing assay (electrochemical patterning and cross-electrode impedance mapping of regrowth); format: cell-based, Canine; settings: 1 μM, over the course of 72 hours; control culture shows regrowth after 72 hours
Text: This example describes a combined application of cross-electrode impedance mapping and cell patterning for a wound healing assay. Such assays may be used to gauge cell growth rate and metabolism and may be useful for screening drugs affecting these parameters. Compared to the electrochemical patterning described herein, other tools mechanically generate a wound in a cell culture via a mechanical scratch which is both difficult to control and limiting in terms of wound pattern.
In this example, a wound is made in MDCK cells and then growth is mapped in real time. […] These patterns were defined by applying electrode currents of −10 nA for 40 s versus a Ag/AgCl pseudo reference electrode. The regrowth of the culture was then measured using the impedance mapping method.

## O=C(O)CN(CCN(CC(=O)O)CC(=O)O)CC(=O)O [EDTA, ethylenediaminetetraacetic acid]
MDCK cells [1]; 5 mM EDTA application
  duration of time over which the cells detached: about 50 min
MDCK cells [1]; EDTA washed out by adding normal culture media
  duration of time over which the cells re-attached after washout: about 200 min

## C=C1[C@@H](C)[C@H]2[C@H](Cc3ccccc3)NC(=O)[C@]23OC(=O)/C=C/[C@H](O)CCC[C@@H](C)C/C=C/[C@H]3[C@@H]1O [cytochalasin B]
MDCK cells [2]
  regrowth of the culture into the wound: very little growth
